{"source": "patent US20020041897A1", "about": "“Compositions for sustained release of antineoplastic taxanes, and methods of making and using the same” (priority 2000, published 2002)", "assay": "Plasma concentrations of paclitaxel as a function of dose after intraperitoneal administration to dogs", "conditions": "dog", "method": "(30%) microspheres were administered intraperitoneally to dogs at doses of 90, 120, 150, 180 and 210 mg/kg; paclitaxel was administered at doses of 9 mg/kg and 12 mg/kg to other dogs. Each dose group comprised one female dog. Plasma samples were taken from each dog at various time points. Samples were analyzed using a LC/MS/MS method. Results are depicted in FIG. 10.\nFollowing administration of 90 and 120 mg/kg doses of […] (30%) microspheres, plasma samples were collected through 63 days. At doses of 150 and 180 mg/kg, the last sample was obtained at 35 days. The last sampling time for the 210 mg/kg dose was 28 days."}
{"smiles": "CC(=O)O[C@H]1C(=O)[C@@]2(C)[C@H]([C@H](OC(=O)c3ccccc3)[C@]3(O)C[C@H](OC(=O)[C@H](O)[C@@H](NC(=O)c4ccccc4)c4ccccc4)C(C)=C1C3(C)C)[C@]1(OC(C)=O)CO[C@@H]1C[C@@H]2O", "note": "[paclitaxel]", "values": [{"measurement": "toxicity outcome", "setting": "in vivo, ip, 12 mg/kg", "result": "euthanized before the completion of the study due to toxicity"}, {"measurement": "decline of plasma paclitaxel concentration", "setting": "intraperitoneal, 9 mg/kg", "result": "declined in a biphasic manner"}, {"measurement": "time at which maximum plasma paclitaxel concentration was reached", "setting": "intraperitoneal, 9 mg/kg", "result": 0.5, "unit": "days"}, {"measurement": "time post dose beyond which plasma paclitaxel could not be detected", "setting": "intraperitoneal, 9 mg/kg", "result": "≤ 7", "unit": "days"}]}
